Our source for the T/C values is PubChem BioAssay AID192 (DTP/NCI, 2004).

SMILES strings stand for the structures. Several values for one entry are separate records, joined by “and”; a condition that tells them apart may be missing. Equal values may be shown once. Inconclusive results and toxic doses are left out.

In this assay the test system is BDF1 mice, B16 melanoma ip, median survival T/C. Nature of the assay: NCI In Vivo Anticancer Drug Screen. Data for tumor model B16 Melanoma (intraperitoneal) in B6D2F1 (BDF1) mice. The settings on record: endpoint: median survival time, higher = longer survival. The method in brief: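 Tumor-bearing mice received test compound or vehicle. Survival or tumor size was then measured in both groups. The treated-group figure was divided by the control-group figure.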

Setting [1] is: dose: 100.0 mg/kg/injection, schedule: Q01DX009 (ip), vehicle: saline with Tween-80.
Setting [2] is: dose: 400.0 mg/kg/injection, schedule: Q01DX009 (ip), vehicle: saline with Tween-80.
Where [3] appears, read: dose: 6.25 mg/kg/injection, schedule: Q01DX009 (ip), vehicle: saline.
The mark [4] stands for this setting: dose: 12.5 mg/kg/injection, schedule: Q01DX009 (ip), vehicle: saline.
[5] abbreviates: dose: 25.0 mg/kg/injection, schedule: Q01DX009 (ip), vehicle: saline.
Where [6] appears, read: dose: 50.0 mg/kg/injection, schedule: Q01DX009 (ip), vehicle: saline.
Where [7] appears, read: dose: 1.0 mg/kg/injection, schedule: Q01DX009 (ip), vehicle: saline with Tween-80.
Where [8] appears, read: dose: 2.0 mg/kg/injection, schedule: Q01DX009 (ip), vehicle: saline with Tween-80.
Setting [9] is: dose: 12.5 mg/kg/injection, schedule: Q01DX009 (ip), vehicle: saline with Tween-80.
Setting [10] is: dose: 25.0 mg/kg/injection, schedule: Q01DX009 (ip), vehicle: saline with Tween-80.
Setting [11] is: dose: 25.0 mg/kg/injection, schedule: Q04DX003 (ip), vehicle: saline with Tween-80.
Where [12] appears, read: dose: 50.0 mg/kg/injection, schedule: Q04DX003 (ip), vehicle: saline with Tween-80.
Where [13] appears, read: dose: 50.0 mg/kg/injection, schedule: Q01DX009 (ip), vehicle: saline with Tween-80.
Where [14] appears, read: dose: 25.0 mg/kg/injection, schedule: Q01DX009 (ip), vehicle: Klucel (hydroxypropylcellulose) (HPC).
The mark [15] stands for this setting: dose: 100.0 mg/kg/injection, schedule: Q01DX009 (ip), vehicle: Klucel (hydroxypropylcellulose) (HPC).
Setting [16] is: dose: 3.12 mg/kg/injection, schedule: Q01DX009 (ip), vehicle: saline.
Setting [17] is: dose: 6.25 mg/kg/injection, schedule: Q01DX009 (ip), vehicle: saline with Tween-80.

As to `CC(=O)OC(OC(C)=O)c1ccc([N+](=O)[O-])cc1`, the T/C is, setting by setting: under setting [1], 93 % of control; (dose: 200.0 mg/kg/injection, schedule: Q01DX009 (ip), vehicle: saline with Tween-80) 95 % of control; under setting [2], 86 % of control.
For `CN(CO)c1nc(N(C)CO)nc(N(C)CO)n1`, the T/C runs as follows: under setting [3], 111 % of control; under setting [4], 112 % of control and 118 % of control; under setting [5], 110 % of control and 124 % of control; under setting [6], 120 % of control.
Consider `CC1=CC(=O)C(O)C2(C)C1CC(O)C13COC4(C)C(OC(=O)C41)C(O)C23` (centres undefined), for which the T/C under setting [7] is 97 % of control; the T/C under setting [8] was 101 % of control; the T/C (dose: 4.0 mg/kg/injection, schedule: Q01DX009 (ip), vehicle: saline with Tween-80) is 97 % of control.
Consider `CC[C@]1(O)C[C@H](OC2CC(N(C)C)C(OC3CC(O)C(O)C(C)O3)C(C)O2)c2c(cc3c(c2O)C(=O)c2c(O)ccc(O)c2C3=O)[C@H]1C(=O)OC` (some centres undefined), for which the T/C was 113 % of control (dose: 0.2 mg/kg/injection, schedule: Q01DX009 (ip), vehicle: carboxymethylcellulose (CMC)); 120 % of control (dose: 0.25 mg/kg/injection, schedule: Q01DX009 (ip), vehicle: saline with Tween-80); 94 % of control (dose: 0.4 mg/kg/injection, schedule: Q01DX009 (ip), vehicle: carboxymethylcellulose (CMC)); 159 % of control under setting [7]; 179 % of control under setting [8].
As to `CCCC(C)C/C(C)=C/C(C)(C)C(CC(=O)N1CCOCC1)C(=O)O` (centres undefined), the T/C reads like this: under setting [9], 100 % of control; under setting [10], 92 % of control; under setting [11], 92 % of control; under setting [12], 92 % of control.
In the case of `CN(C)CC/C=C1\c2ccccc2CN(C)c2ccccc21`, the T/C reads like this: under setting [3], 102 % of control; under setting [4], 107 % of control; under setting [5], 94 % of control; under setting [6], 99 % of control.
Turning to `CCSCCC1(CCC(C)C)C(=O)NC(=Nc2ccccc2)NC1=O` (centres undefined), the T/C reads like this: under setting [13], 91 % of control; under setting [1], 89 % of control; under setting [2], 96 % of control.
In the case of `C/C(=N/NC(N)=S)c1ccc2ccccc2c1`, the T/C is 111 % of control (dose: 6.0 mg/kg/injection, schedule: Q01DX009 (ip), vehicle: saline with Tween-80) and 105 % of control (dose: 12.0 mg/kg/injection, schedule: Q01DX009 (ip), vehicle: saline with Tween-80).
Take `O=[As](O)(O)c1ccc(Nc2nc(Cl)nc(Cl)n2)cc1`: the T/C is 100 % of control (dose: 3.13 mg/kg/injection, schedule: Q01DX009 (ip), vehicle: Klucel (hydroxypropylcellulose) (HPC)) and 110 % of control (dose: 6.25 mg/kg/injection, schedule: Q01DX009 (ip), vehicle: Klucel (hydroxypropylcellulose) (HPC)).
For the molecule `CN1CN(C)CN(C)C1`, the T/C under setting [5] was 118 % of control.
For `Cc1ccc(N2C(=O)CC(Sc3ccccc3N)C2=O)cc1` (centres undefined), the T/C under setting [14] is 97 % of control; the T/C (dose: 50.0 mg/kg/injection, schedule: Q01DX009 (ip), vehicle: Klucel (hydroxypropylcellulose) (HPC)) was 91 % of control; the T/C under setting [15] was 86 % of control and 91 % of control.
As to `O=c1[nH]c(=O)n(C2OC(CO)C(O)C2O)cc1F` (centres undefined), the T/C by setting is: (dose: 0.78 mg/kg/injection, schedule: Q01DX009 (ip), vehicle: saline) 156 % of control; (dose: 1.56 mg/kg/injection, schedule: Q01DX009 (ip), vehicle: saline) 165 % of control; under setting [16], 165 % of control.
On to `CCCCS(=O)CC(CO)NC(=O)/C=C/c1c(C)[nH]c(=O)[nH]c1=O` (centres undefined), for which the T/C runs as follows: (dose: 0.63 mg/kg/injection, schedule: Q01DX009 (ip), vehicle: water) 104 % of control; (dose: 1.25 mg/kg/injection, schedule: Q01DX009 (ip), vehicle: water) 102 % of control; (dose: 2.5 mg/kg/injection, schedule: Q01DX009 (ip), vehicle: water) 104 % of control; (dose: 5.0 mg/kg/injection, schedule: Q01DX009 (ip), vehicle: water) 99 % of control; (dose: 10.0 mg/kg/injection, schedule: Q01DX009 (ip), vehicle: water) 95 % of control.
`CCOC(=O)c1c(N)[nH]c(SSc2[nH]c(N)c(C(=O)OCC)c2C(=O)OCC)c1C(=O)OCC`: the T/C (dose: 75.0 mg/kg/injection, schedule: Q01DX009 (ip), vehicle: saline) was 89 % of control and the T/C (dose: 300.0 mg/kg/injection, schedule: Q01DX009 (ip), vehicle: saline) is 97 % of control.
Take `CCCCC(CC)COP(=O)(CC(CC)CCCC)OCC(CC)CCCC` (centres undefined): the T/C is 94 % of control under setting [17]; 107 % of control (dose: 6.25 mg/kg/injection, schedule: Q04DX003 (ip), vehicle: saline); 102 % of control (dose: 8.0 mg/kg/injection, schedule: Q04DX003 (ip), vehicle: saline with Tween-80); 97 % of control (dose: 12.0 mg/kg/injection, schedule: Q04DX003 (ip), vehicle: saline with Tween-80); 89 % of control under setting [9]; 100 % of control (dose: 18.0 mg/kg/injection, schedule: Q04DX003 (ip), vehicle: saline with Tween-80). For the same molecule, the T/C under setting [10] is 86 % of control and the T/C (dose: 25.0 mg/kg/injection, schedule: Q04DX003 (ip), vehicle: saline) was 123 % of control.
Consider `CC(N)(Cc1ccc(O)c(O)c1)C(=O)O` (centres undefined), for which the T/C under setting [6] was 115 % of control; the T/C (dose: 100.0 mg/kg/injection, schedule: Q01DX009 (ip), vehicle: saline) is 100 % of control; the T/C (dose: 200.0 mg/kg/injection, schedule: Q01DX009 (ip), vehicle: saline) is 107 % of control; the T/C (dose: 400.0 mg/kg/injection, schedule: Q01DX009 (ip), vehicle: saline) is 110 % of control.
As to `CN(C)c1ccc2nc3ccc(=[N+](C)C)cc-3sc2c1`, the T/C under setting [3] was 86 % of control and the T/C under setting [4] was 93 % of control.
Take `CN(C)CCCC1c2ccccc2Oc2ccc(C(F)(F)F)cc21` (centres undefined): the T/C by setting is: under setting [16], 86 % of control; under setting [3], 88 % of control; under setting [4], 100 % of control; under setting [5], 97 % of control.
As for `CN1CCc2cc3c(c4c2C1C(O)c1ccccc1-4)OCO3` (centres undefined), the T/C (dose: 0.5 mg/kg/injection, schedule: Q01DX009 (ip), vehicle: acid diluted with saline) is 113 % of control; the T/C (dose: 1.0 mg/kg/injection, schedule: Q01DX009 (ip), vehicle: acid diluted with saline) was 109 % of control; the T/C (dose: 2.0 mg/kg/injection, schedule: Q01DX009 (ip), vehicle: acid diluted with saline) was 96 % of control; the T/C (dose: 4.0 mg/kg/injection, schedule: Q01DX009 (ip), vehicle: acid diluted with saline) was 89 % of control.
As for `CNc1ccccc1C(N)=O`, the T/C under setting [15] was 94 % of control and the T/C (dose: 200.0 mg/kg/injection, schedule: Q01DX009 (ip), vehicle: Klucel (hydroxypropylcellulose) (HPC)) is 100 % of control.
For the molecule `NNC(=O)c1ccc(Cl)cc1Cl`, the T/C is 100 % of control (dose: 12.5 mg/kg/injection, schedule: Q01DX009 (ip), vehicle: Klucel (hydroxypropylcellulose) (HPC)); 103 % of control (dose: 12.5 mg/kg/injection, schedule: Q04DX003 (ip), vehicle: Klucel (hydroxypropylcellulose) (HPC)); 86 % of control under setting [14]; 93 % of control (dose: 25.0 mg/kg/injection, schedule: Q04DX003 (ip), vehicle: Klucel (hydroxypropylcellulose) (HPC)).
Regarding `CC1=CCC=C(CNc2ncnc3nc[nH]c23)C1`, the T/C was 102 % of control (dose: 3.13 mg/kg/injection, schedule: Q01DX009 (ip), vehicle: saline with Tween-80); 102 % of control under setting [17]; 90 % of control under setting [9]; 100 % of control (dose: 12.5 mg/kg/injection, schedule: Q04DX003 (ip), vehicle: saline with Tween-80); 102 % of control under setting [11]; 88 % of control under setting [13]. The T/C under setting [12] was 102 % of control.
